Test results: patent US10294202B2, “Pyrrolidinones as herbicides” (FMC Corporation, priority 2013, dated 2019)

Columns and labels:
Experiment in all cases: Test H preemergence mixture test (Colby)
Conditions in all cases: Mesotrione alone 16 g a.i./ha, 21 d after treatment, scale 0 to 100
[1] = system: corn (ZEAMD); type: in vivo, Zea mays
Description: (§1) Colby's Equation was used to determine the herbicidal effects expected from the mixtures. Colby's Equation (Colby, S. R. “Calculating Synergistic and Antagonistic Responses of Herbicide Combinations,” Weeds, 15(1), pp 20-22 (1967)) calculates the expected additive effect of herbicidal mixtures and for two active ingredients is of the form: Pa+b=Pa+Pb−(PaPb/100)
(§2) where • Pa+b is the percentage effect of the mixture expected from additive contribution of the individual components: • Pa is the observed percentage effect of the first active ingredient at the same use rate as in the mixture, and • Pb is the observed percentage effect of the second active ingredient at the same use rate as in the mixture. In the following Tables, rates are shown in grams of active ingredient per hectare (g a.i./ha); “Obsd.” is the observed effect. “Exp.” is the expected effect calculated from Colby's Equation.
(§3) This test evaluated the effect of mixtures of compound 80 with several commercial herbicides on four plant species. Seeds of plant species selected from corn (ZEAMD, Zea mays), soybean (GLXMA, Glycine max), waterhemp (common waterhemp, AMATA, Amaranthus rudis), and giant foxtail (SETFA, Setaria faberii) were planted into a silt loam soil and treated preemergence with test chemicals formulated in a non-phytotoxic solvent mixture which included a surfactant and applied using a volume of 281 L/ha. Each treatment was replicated three times. Treated plants and controls were maintained in a greenhouse using supplemental lighting to maintain a photoperiod of about 16 h; daytime and nighttime temperatures were about 24-30° C. and 19-21° C., respectively. Nutrients were applied using a balanced fertilizer applied through the watering system. At 21 d after treatment, all species were compared to controls and visually evaluated. Plant response ratings were calculated as the means of the three replicates, are summarized in Tables H1 through H5, and are based on a scale of 0 to 100 where 0 is no effect and 100 is complete control. A dash (-) response means no test result. The Expected (Exp.) results were calculated using Colby's Equation as described for Test G above.

[2] = system: soybean (GLXMA); type: in vivo, Glycine max
Description: as §1, §2, §3

[3] = system: waterhemp (AMATA); type: in vivo, Amaranthus rudis
Description: as §1, §2, §3

[4] = system: giant foxtail (SETFA); type: in vivo, Setaria faberii
Description: as §1, §2, §3

Structure (SMILES): CS(=O)(=O)c1ccc(C(=O)C2C(=O)CCCC2=O)c([N+](=O)[O-])c1 [Mesotrione, reference compound]
- Plant response rating, Obsd., ZEAMD [1]: 12
- Plant response rating, Obsd., GLXMA [2]: 25
- Plant response rating, Obsd., AMATA [3]: 96
- Plant response rating, Obsd., SETFA [4]: 0
